Measurements reported in ChEMBL document CHEMBL3885861, “Open TG-GATES”.

Species: Rattus norvegicus
Assay: Open TG-GATES - Regimen: Single
Format: toxicity, organism-based, Sprague-Dawley
Set-up: regimen Single, gender Male, age 6 weeks
Settings: in vivo, po, 300 mg/kg, route gavage, dose level Low; for APTT / Bas / Eos / Fbg / Hb / Ht / Lym / MCH / MCHC / MCV / Mono / Neu / PT / Plat / RBC / Ret / WBC: tissue Blood; for KIDNEY_L / KIDNEY_R / KIDNEY_TOTAL: tissue Kidney; for LIVER: tissue Liver; for A/G / ALP / ALT / AST / BUN / CRE / Ca / Cl / DBIL / GLC / IP / K / LDH / Na / PL / RALB / TBIL / TC / TG / TP / gamma-GTP: tissue Plasma

## Clc1c(Cl)c(Cl)c(Cl)c(Cl)c1Cl [PERCHLOROBENZENE]
9 h
  TERMINAL_BW: 213.9 g
  APTT: 18.1 s
  Bas: 0%
  Eos: 0.8%
  Fbg: 228 mg/dL
  Hb: 13.9 g/dL
  Ht: 39.4%
  Lym: 78.6%
  MCH: 21.6 pg
  MCHC: 35.2%
  MCV: 61.5 fL
  Mono: 3%
  Neu: 16%
  PT: 12.5 s
  Plat: 125.7 x10_4/uL
  RBC: 641.2 x10_4/ul
  Ret: 6.4%
  WBC: 85.4 x10_2/uL
  KIDNEY_L: 1 g
  KIDNEY_R: 0.9 g
  KIDNEY_TOTAL: 1.9 g
  LIVER: 8.7 g
  A/G: 1.6
  ALP: 857 IU/L
  ALT: 30.6 IU/L
  AST: 75.4 IU/L
  BUN: 9.8 mg/dL
  CRE: 0.4 mg/dL
  Ca: 10.5 mg/dL
  Cl: 104.2 meq/L
  DBIL: 0.066 mg/dL
  GLC: 202.8 mg/dL
  IP: 10.2 mg/dL
  K: 3.8 meq/L
  LDH: 222 IU/L
  Na: 142.6 meq/L
  PL: 119.8 mg/dL
  RALB: 3.4 g/dL
  TBIL: 0.1 mg/dL
  TC: 63.6 mg/dL
  TG: 44.8 mg/dL
  TP: 5.5 g/dL
  gamma-GTP: 1.2 IU/L
24 h
  TERMINAL_BW: 230 g
  APTT: 17.8 s
  Bas: 0.8%
  Eos: 1%
  Fbg: 225 mg/dL
  Hb: 13.6 g/dL
  Ht: 38.8%
  Lym: 78%
  MCH: 21.9 pg
  MCHC: 35.1%
  MCV: 62.4 fL
  Mono: 3%
  Neu: 17.2%
  PT: 11.8 s
  Plat: 114.2 x10_4/uL
  RBC: 621 x10_4/ul
  Ret: 6.4%
  WBC: 81.3 x10_2/uL
  KIDNEY_L: 1 g
  KIDNEY_R: 1 g
  KIDNEY_TOTAL: 2.1 g
  LIVER: 11 g
  A/G: 1.6
  ALP: 883.2 IU/L
  ALT: 32 IU/L
  AST: 61.8 IU/L
  BUN: 13.2 mg/dL
  CRE: 0.4 mg/dL
  Ca: 10.9 mg/dL
  Cl: 103.2 meq/L
  DBIL: 0.058 mg/dL
  GLC: 202.4 mg/dL
  IP: 7.1 mg/dL
  K: 3.9 meq/L
  LDH: 196 IU/L
  Na: 141.6 meq/L
  PL: 143.8 mg/dL
  RALB: 3.3 g/dL
  TBIL: 0.1 mg/dL
  TC: 77.6 mg/dL
  TG: 118.8 mg/dL
  TP: 5.5 g/dL
  gamma-GTP: 1.2 IU/L
